The values below come from ChEMBL document CHEMBL4765470 (J Med Chem, 2021).

Starred links: 1 amine or outer side, 2 acyl side, 3 side chain; linkers in the order of their positions; H or OH if unused. Non-standard residues stand in square brackets, D forms with d. Residues, ends and D or L forms follow the SMILES beside them. *: point of attachment. Bpa = N[C@@H](Cc1ccc(C(=O)c2ccccc2)cc1)C(=O)O; Bip = N[C@@H](Cc1ccc(-c2ccccc2)cc1)C(=O)O; GABA(4S-Me) = C[C@@H](CCC(=O)[*:2])N[*:1]; 1Nal = N[C@@H](Cc1cccc2ccccc12)C(=O)O; 2Thi = N[C@@H](Cc1cccs1)C(=O)O; Cha = N[C@@H](CC1CCCCC1)C(=O)O; Tle = CC(C)(C)[C@H](N)C(=O)O; Pip = O=C(O)[C@@H]1CCCCN1; Nle = CCCC[C@H](N)C(=O)O; Orn = NCCC[C@H](N)C(=O)O; Ac5c = NC1(C(=O)O)CCCC1; Dab = NCC[C@H](N)C(=O)O; Ac3c = NC1(C(=O)O)CC1; Aib = CC(C)(N)C(=O)O; Bn = c1ccc(C*)cc1

The target of the test is T1, Apelin receptor (Homo sapiens, UniProt P35414).
T1 sequence (P35414 whole entry): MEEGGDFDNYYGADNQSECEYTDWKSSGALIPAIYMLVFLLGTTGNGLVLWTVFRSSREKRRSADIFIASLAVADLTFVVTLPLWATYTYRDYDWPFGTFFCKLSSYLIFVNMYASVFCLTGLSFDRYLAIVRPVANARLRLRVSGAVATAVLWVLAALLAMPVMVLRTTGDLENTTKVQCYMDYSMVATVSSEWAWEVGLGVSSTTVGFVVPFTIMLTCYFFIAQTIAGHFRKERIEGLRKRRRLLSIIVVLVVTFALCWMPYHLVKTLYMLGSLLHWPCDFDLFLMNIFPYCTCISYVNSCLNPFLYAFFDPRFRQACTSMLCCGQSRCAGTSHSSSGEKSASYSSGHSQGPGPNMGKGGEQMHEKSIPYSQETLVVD
As to the kind of experiment: Displacement of [125I] [NIe75, Tyr77]Pyr-apelin-13 from YFP-tagged human APJ receptor expressed in HEK293 cell membranes incubated for 1 hr by gamma counting based Cheng-Prusoff equation analysis. A general note: In a radioligand displacement assay an active substance lowers the binding of a labelled ligand.
By Ki is commonly meant a measure of affinity in units of concentration, obtained from inhibition or displacement. A high value points to a looser hold on the target. In the case of `CCCC[C@H](N)C(=O)N1CCC[C@H]1C(=O)N[C@@H](CC(C)C)C(=O)N[C@@H](Cc1cccc2ccccc12)C(=O)N[C@@H](CO)C(=O)N[C@@H](CCCNC(=N)N)C(=O)N[C@H](C(=O)N1CCC[C@H]1C(=O)N[C@@H](Cc1ccccc1)C(=O)N1CCC[C@H]1C(=O)O)C(C)C` (H-[Nle]PL[1Nal]SRVPFP-OH), the inhibition constant (Ki) was over 10 µM.
For `CCCC[C@H](N)C(=O)N1CCC[C@H]1C(=O)N[C@@H](CC(C)C)C(=O)N[C@@H](Cc1cnc[nH]1)C(=O)N[C@@H](CO)C(=O)N[C@@H](CCCNC(=N)N)C(=O)N[C@H](C(=O)N1CCC[C@H]1C(=O)N[C@@H](Cc1cccc2ccccc12)C(=O)O)C(C)C` (H-[Nle]PLHSRVP[1Nal]-OH) the value was 0.094 µM.
As for `CCCC[C@H](N)C(=O)N1CCC[C@H]1C(=O)N[C@@H](CC(C)C)C(=O)N[C@@H](Cc1cnc[nH]1)C(=O)N[C@@H](CO)C(=O)N[C@@H](CCCNC(=N)N)C(=O)N[C@@H](CC1CCCCC1)C(=O)N1CCC[C@H]1C(=O)N[C@@H](Cc1ccccc1)C(=O)N1CCC[C@H]1C(=O)O` (H-[Nle]PLHSR[Cha]PFP-OH), the figure is 0.152 µM; as for `CCCC[C@H](N)C(=O)N1CCC[C@H]1C(=O)N[C@@H](CC(C)C)C(=O)N[C@@H](Cc1cnc[nH]1)C(=O)N[C@@H](CO)C(=O)N[C@@H](CCCNC(=N)N)C(=O)N[C@H](C(=O)N1CCC[C@H]1C(=O)N[C@@H](Cc1ccc(C(=O)c2ccccc2)cc1)C(=O)O)C(C)C` (H-[Nle]PLHSRVP[Bpa]-OH), 0.048 µM; as for `CCCC[C@H](N)C(=O)N1CCC[C@H]1C(=O)N[C@@H](CC(C)C)C(=O)N[C@@H](Cc1cnc[nH]1)C(=O)N[C@@H](CO)C(=O)N[C@@H](CCCNC(=N)N)C(=O)N[C@H](C(=O)N1CCCC[C@H]1C(=O)N[C@@H](Cc1ccccc1)C(=O)O)C(C)C` (H-[Nle]PLHSRV[Pip]F-OH), 0.186 µM.
As for `CCCC[C@H](N)C(=O)N1CCC[C@H]1C(=O)N[C@H](C(=O)N[C@@H](Cc1cnc[nH]1)C(=O)N[C@@H](CO)C(=O)N[C@@H](CCCNC(=N)N)C(=O)N[C@H](C(=O)N1CCC[C@H]1C(=O)N[C@@H](Cc1ccccc1)C(=O)N1CCC[C@H]1C(=O)O)C(C)C)C(C)C` (H-[Nle]PVHSRVPFP-OH), the figure is 0.054 µM; as for `CCCC[C@H](N)C(=O)N1CCC[C@H]1C(=O)N[C@@H](CC(C)C)C(=O)N[C@@H](Cc1cnc[nH]1)C(=O)N[C@@H](CO)C(=O)N[C@@H](CCCNC(=N)N)C(=O)N[C@H](C(=O)N1CCC[C@H]1C(=O)N[C@@H](Cc1ccc(C(=O)c2ccccc2)cc1)C(=O)N1CCC[C@H]1C(=O)O)C(C)C` (H-[Nle]PLHSRVP[Bpa]P-OH), over 10 µM.
Consider `CCCC[C@H](N)C(=O)N1CCC[C@H]1C(=O)N[C@@H](CC(C)C)C(=O)N[C@@H](Cc1cnc[nH]1)C(=O)N[C@@H](CO)C(=O)N[C@@H](CCCNC(=N)N)C(=O)N[C@H](C(=O)N1CCC[C@H]1C(=O)N[C@@H](Cc1ccccc1)C(=O)N[C@@H](C)C(=O)O)C(C)C` (H-[Nle]PLHSRVPFA-OH), for which the Ki amounted to 0.057 µM. This lies in the double-digit nanomolar range.
Take `CCCC[C@H](N)C(=O)N1CCC[C@H]1C(=O)N[C@@H](CC(C)C)C(=O)N[C@@H](CCN)C(=O)N[C@@H](CO)C(=O)N[C@@H](CCCNC(=N)N)C(=O)N[C@H](C(=O)N1CCC[C@H]1C(=O)N[C@@H](Cc1ccccc1)C(=O)N1CCC[C@H]1C(=O)O)C(C)C` (H-[Nle]PL[Dab]SRVPFP-OH): the Ki is over 10 µM.
For `CCCC[C@H](N)C(=O)N1CCC[C@H]1C(=O)N[C@@H](CC(C)C)C(=O)N[C@@H](Cc1cnc[nH]1)C(=O)N[C@@H](CO)C(=O)N[C@@H](CCCNC(=N)N)C(=O)N[C@H](C(=O)NC(C)(C)C(=O)N[C@@H](Cc1ccccc1)C(=O)O)C(C)C` (H-[Nle]PLHSRV[Aib]F-OH) the value was over 10 µM.
For `CCCC[C@H](N)C(=O)N1CCC[C@H]1C(=O)N[C@@H](CC(C)C)C(=O)N[C@@H](Cc1c[nH]c2ccccc12)C(=O)N[C@@H](CO)C(=O)N[C@@H](CCCNC(=N)N)C(=O)N[C@H](C(=O)N1CCC[C@H]1C(=O)N[C@@H](Cc1ccccc1)C(=O)N1CCC[C@H]1C(=O)O)C(C)C` (H-[Nle]PLWSRVPFP-OH) the value was 0.062 µM; for `CCCC[C@H](N)C(=O)N1CCC[C@H]1C(=O)N[C@@H](CC(C)C)C(=O)N[C@@H](CCCN)C(=O)N[C@@H](CO)C(=O)N[C@@H](CCCNC(=N)N)C(=O)N[C@H](C(=O)N1CCC[C@H]1C(=O)N[C@@H](Cc1ccccc1)C(=O)N1CCC[C@H]1C(=O)O)C(C)C` (H-[Nle]PL[Orn]SRVPFP-OH), over 10 µM.
The compound `CCCC[C@H](N)C(=O)N1CCC[C@H]1C(=O)N[C@@H](CC(C)C)C(=O)N[C@@H](Cc1cnc[nH]1)C(=O)N[C@@H](CO)C(=O)N[C@@H](CCCNC(=N)N)C(=O)N[C@H](C(=O)N1CCC[C@H]1C(=O)N[C@@H](C)CCC(=O)O)C(C)C` (H-[Nle]PLHSRVP-{GABA(4S-Me)}) returned a Ki of over 10 µM.
For `CCCC[C@H](N)C(=O)N1CCC[C@H]1C(=O)N[C@@H](CC(C)C)C(=O)N[C@@H](Cc1cnc[nH]1)C(=O)N[C@@H](CO)C(=O)N[C@@H](CCCNC(=N)N)C(=O)N[C@@H](CCC)C(=O)N1CCC[C@H]1C(=O)N[C@@H](Cc1ccccc1)C(=O)N1CCC[C@H]1C(=O)O` the value was 0.069 µM; for `CCCC[C@H](N)C(=O)N1CCC[C@H]1C(=O)N[C@@H](Cc1ccccc1)C(=O)N[C@@H](Cc1cnc[nH]1)C(=O)N[C@@H](CO)C(=O)N[C@@H](CCCNC(=N)N)C(=O)N[C@H](C(=O)N1CCC[C@H]1C(=O)N[C@@H](Cc1ccccc1)C(=O)N1CCC[C@H]1C(=O)O)C(C)C` (H-[Nle]PFHSRVPFP-OH), 0.212 µM; for `CCCC[C@H](N)C(=O)N1CCC[C@H]1C(=O)N[C@@H](CC(C)C)C(=O)N[C@@H](Cc1cnc[nH]1)C(=O)N[C@@H](CO)C(=O)N[C@@H](CCCNC(=N)N)C(=O)N[C@@H](CC(C)C)C(=O)N1CCC[C@H]1C(=O)N[C@@H](Cc1ccccc1)C(=O)N1CCC[C@H]1C(=O)O` (H-[Nle]PLHSRLPFP-OH), 0.045 µM.
As for `CCCC[C@H](N)C(=O)N1CCC[C@H]1C(=O)N[C@@H](CC(C)C)C(=O)N[C@@H](Cc1cnc[nH]1)C(=O)N[C@@H](CO)C(=O)N[C@@H](CCCNC(=N)N)C(=O)N[C@H](C(=O)N1CCC[C@H]1C(=O)N[C@@H](Cc1ccccc1)C(=O)N1CCC[C@H]1C(=O)O)C(C)(C)C` (H-[Nle]PLHSR[Tle]PFP-OH), the figure is 0.174 µM.
As for `CCCC[C@H](N)C(=O)N1CCC[C@H]1C(=O)N[C@@H](CC(C)C)C(=O)N[C@@H](Cc1cnc[nH]1)C(=O)N[C@@H](CO)C(=O)N[C@@H](CCCNC(=N)N)C(=O)N[C@H](C(=O)N1CCC[C@H]1C(=O)N[C@@H](Cc1ccc(-c2ccccc2)cc1)C(=O)N1CCC[C@H]1C(=O)O)C(C)C` (H-[Nle]PLHSRVP[Bip]P-OH), the figure is over 10 µM.
Consider `CCCC[C@H](N)C(=O)N1CCC[C@H]1C(=O)N[C@@H](CC(C)C)C(=O)N[C@@H](Cc1cnc[nH]1)C(=O)N[C@@H](CO)C(=O)N[C@@H](CCCNC(=N)N)C(=O)N[C@H](C(=O)N1CCC[C@H]1C(=O)N[C@@H](Cc1ccccc1)C(=O)N1C[C@H](OCc2ccccc2)C[C@H]1C(=O)O)C(C)C`, for which the Ki worked out at 0.038 µM.
For H-HSRVPFP-OH, the Ki is over 10 µM.
As for `CCCC[C@H](N)C(=O)N1CCC[C@H]1C(=O)N[C@@H](CC(C)C)C(=O)N[C@@H](Cc1cccs1)C(=O)N[C@@H](CO)C(=O)N[C@@H](CCCNC(=N)N)C(=O)N[C@H](C(=O)N1CCC[C@H]1C(=O)N[C@@H](Cc1ccccc1)C(=O)N1CCC[C@H]1C(=O)O)C(C)C` (H-[Nle]PL[2Thi]SRVPFP-OH), the figure is 0.664 µM.
`CCCC[C@H](N)C(=O)N1CCC[C@H]1C(=O)N[C@@H](CC(C)C)C(=O)N[C@@H](Cc1cnc[nH]1)C(=O)N[C@@H](CO)C(=O)N[C@@H](CCCNC(=N)N)C(=O)N[C@H](C(=O)N1CCC[C@H]1C(=O)N[C@@H](Cc1ccc(OCc2ccccc2)cc1)C(=O)O)C(C)C` (H-[Nle]PLHSRVPY(Bn)-OH) returned a Ki of 0.092 µM.
For `CCCC[C@H](N)C(=O)N1CCC[C@H]1C(=O)NC1(C(=O)N[C@@H](Cc2cnc[nH]2)C(=O)N[C@@H](CO)C(=O)N[C@@H](CCCNC(=N)N)C(=O)N[C@H](C(=O)N2CCC[C@H]2C(=O)N[C@@H](Cc2ccccc2)C(=O)N2CCC[C@H]2C(=O)O)C(C)C)CC1` (H-[Nle]P[Ac3c]HSRVPFP-OH) the value was 0.278 µM; for `CCCC[C@H](N)C(=O)N1CCC[C@H]1C(=O)N(C)[C@@H](CC(C)C)C(=O)N[C@@H](Cc1cnc[nH]1)C(=O)N[C@@H](CO)C(=O)N[C@@H](CCCNC(=N)N)C(=O)N[C@H](C(=O)N1CCC[C@H]1C(=O)N[C@@H](Cc1ccccc1)C(=O)N1CCC[C@H]1C(=O)O)C(C)C`, 0.12 µM; for `CCCC[C@H](N)C(=O)N1CCC[C@H]1C(=O)N[C@@H](CC(C)C)C(=O)N[C@@H](Cc1cnc[nH]1)C(=O)N[C@@H](CO)C(=O)N[C@@H](CCCNC(=N)N)C(=O)N[C@@H](C)C(=O)N1CCC[C@H]1C(=O)N[C@@H](Cc1ccccc1)C(=O)N1CCC[C@H]1C(=O)O` (H-[Nle]PLHSRAPFP-OH), 0.419 µM.
For `CCCC[C@H](N)C(=O)N1CCC[C@H]1C(=O)N[C@@H](CC(C)C)C(=O)N[C@@H](Cc1cnc[nH]1)C(=O)N[C@@H](CO)C(=O)N[C@@H](CCCNC(=N)N)C(=O)NC1(C(=O)N2CCC[C@H]2C(=O)N[C@@H](Cc2ccccc2)C(=O)N2CCC[C@H]2C(=O)O)CCCC1` (H-[Nle]PLHSR[Ac5c]PFP-OH) the value was over 10 µM; for `CCCC[C@H](N)C(=O)N1CCC[C@H]1C(=O)N[C@@H](CC(C)C)C(=O)N[C@@H](CC1CCCCC1)C(=O)N[C@@H](CO)C(=O)N[C@@H](CCCNC(=N)N)C(=O)N[C@H](C(=O)N1CCC[C@H]1C(=O)N[C@@H](Cc1ccccc1)C(=O)N1CCC[C@H]1C(=O)O)C(C)C` (H-[Nle]PL[Cha]SRVPFP-OH), 0.474 µM.
